Where “and” joins values, the source holds several entries; their conditions need not be identical. Equal entries are not always repeated.
Key:
[1] = test system: dengue virus type 2; experiment: Functional assay to measure dose dependent changes in antiviral-drug inhibitory efficacy against Dengue virus type 2 New Guinea C in Vero E6 miRFP670 cells (cotreated with P-gp inhibitor, CP100356). Cells are treated with antiviral candidates that are serially diluted, following infection, cells are fixed. EC50 is reported via analysis of fluorescence intensity using high-content imager. The …; type: organism-based, Chlorocebus sabaeus, Vero C1008
[2] = test system: Zika virus; experiment: Functional CPE-based assay to measure dose dependent changes in antiviral-drug inhibitory efficacy against Zika virus MR766 in Vero E6 miRFP670 cells (cotreated with P-gp inhibitor, CP100356). Cells are treated with antiviral candidates that are serially diluted. EC50 is reported via analysis of MTS assay as a readout of CPE. The assay has been performed by KU Leuven.; type: organism-based, Chlorocebus sabaeus, Vero C1008; conditions: for EC90: P-gp concentration 500 nM, P-gp inhibitor CP100356

Which EC50 ([1]; Dengue virus, Vero C1008) does the source give for `C[C@@]1(O)[C@H](O)[C@@H](CO)O[C@H]1n1ccc(N)nc1=O` here?
Its EC50 is 116 µM.

What about the EC90 ([1]; Dengue virus, Vero C1008, Baseline response 0 %, Hill slope -2.692, Maximum measured 107.888 %, Maximum response 100 %, Minimum measured 21.977 %, P-gp concentration 500 nM, R squared 0.958, P-gp inhibitor CP100356) of the same compound?
Its EC90 is > 200 µM.

Which EC50 ([1]; Dengue virus, Vero C1008) does the source give for `C=C1C[C@H](c2cc(Cl)cc(NC(=O)OCc3ccccc3)c2)[C@@H](c2cccc(-c3nn[nH]n3)c2)C1` here?
Its EC50 is > 6.25 µM.

What about the EC90 ([1]; Dengue virus, Vero C1008, Maximum measured 124.641 %, Minimum measured 90.066 %, P-gp concentration 500 nM, P-gp inhibitor CP100356) of the same compound?
The EC90 was > 6.25 µM.

Which EC50 ([1]; Dengue virus, Vero C1008) does the source give for `CN(C)C(=O)c1cc(CN)cc([C@@H]2C[C@H]2c2cc(Cl)cc(NC(=O)OCc3ccccc3)c2)c1` here?
Its EC50 is 2 µM.

What about the EC90 ([1]; Dengue virus, Vero C1008, Baseline response 0 %, Hill slope -4.597, Maximum measured 117.075 %, Maximum response 100 %, Minimum measured 13.909 %, P-gp concentration 500 nM, R squared 0.926, P-gp inhibitor CP100356) of the same compound?
The EC90 was > 3.12 µM.

`CC(=Cc1cc(Cl)cc(NC(=O)OCc2ccccc2)c1)c1cccc(CN)c1` was tested. Which EC50 ([1]; Dengue virus, Vero C1008) did it give?
The EC50 was > 1.56 µM.

And the EC90 ([1]; Dengue virus, Vero C1008, Maximum measured 159.566 %, Minimum measured 81.442 %, P-gp concentration 500 nM, P-gp inhibitor CP100356)?
The EC90 was > 1.56 µM.

How did the EC50 ([1]; Dengue virus, Vero C1008) turn out when `C=CC[C@H](Nc1cc(Cl)cc(NC(=O)OCc2ccccc2)c1)c1cccc(CN)c1` was run?
The EC50 was 0.546 µM.

What about the EC90 ([1]; Dengue virus, Vero C1008, Baseline response 0 %, EC90 CI (lower) 0.029 uM, EC90 CI (upper) 0.719 uM, Hill slope -1.654, Maximum measured 56.301 %, Maximum response 100 %, Minimum measured 0.945 %, P-gp concentration 500 nM, R squared 0.693, P-gp inhibitor CP100356) of the same compound?
Its EC90 is 2.06 µM.

`CC(C)NC(=O)[C@H](Nc1ccc2c(c1)CNC2)c1cc(Cl)cc2[nH]c(-c3ccccc3)nc12` was tested. Which EC90 ([2]; Baseline response 0 %, EC90 CI (lower) 1.625 uM, EC90 CI (upper) 3.959 uM, Hill slope 3.776, Maximum measured 116.485 %, Maximum response 100 %, Minimum measured 3.087 %, R squared 0.948) did it give?
The EC90 was 2.54 µM.

And the EC90 ([2]; Zika virus, Vero C1008, Maximum measured -0.317 %, Minimum measured -11.958 %)?
Its EC90 is > 50 µM.

And the EC90 ([2]; Zika virus, Vero C1008, Baseline response 0 %, Hill slope 1.53, Maximum measured 31.705 %, Maximum response 100 %, Minimum measured 3.074 %, R squared 0.825)?
Its EC90 is > 3.12 µM.

What about the EC90 ([1]; Baseline response 0 %, Hill slope -0.821, Maximum measured 139.415 %, Maximum response 100 %, Minimum measured 43.862 %, P-gp concentration 500 nM, R squared 0.144, P-gp inhibitor CP100356) of the same compound?
The EC90 was > 50 µM.

What about the EC90 ([1]; Baseline response 0 %, Hill slope -1.532, Maximum measured 181.616 %, Maximum response 100 %, Minimum measured 48.773 %, P-gp concentration 500 nM, R squared 0.025, P-gp inhibitor CP100356) of the same compound?
Its EC90 is > 50 µM.

And the EC90 ([1]; Baseline response 0 %, Hill slope -1.75, Maximum measured 104.337 %, Maximum response 100 %, Minimum measured 20.383 %, P-gp concentration 500 nM, R squared 0.733, P-gp inhibitor CP100356)?
The EC90 was > 12.5 µM.

What about the EC50 ([1]; vero c1008) of the same compound?
Its EC50 is 5.05 µM and > 50 µM.

With `N[C@H]1Cc2ccc(NC(=O)c3cc(Cl)cc(NC(=O)OCc4ccccc4)c3)cc2C1` as the compound, how does the EC50 ([1]; Dengue virus, Vero C1008) read?
Its EC50 is 1.64 µM.

What about the EC90 ([1]; Dengue virus, Vero C1008, Baseline response 0 %, EC90 CI (lower) 0.187 uM, EC90 CI (upper) 8.327 uM, Hill slope -7.929, Maximum measured 105.944 %, Maximum response 100 %, Minimum measured 3.386 %, P-gp concentration 500 nM, R squared 0.874, P-gp inhibitor CP100356) of the same compound?
The EC90 was 2.17 µM.

What does the source list for `NCc1ccc2c(c1)[C@H]1OCCC[C@H]1[C@H](c1cc(Cl)cc(NC(=O)OCc3ccccc3)c1)N2`?
EC50 ([1]; Dengue virus, Vero C1008): 1.9 µM; EC90 ([1]; Dengue virus, Vero C1008, Baseline response 0 %, EC90 CI (lower) 1.087 uM, EC90 CI (upper) 1.673 uM, Hill slope -6.376, Maximum measured 104.423 %, Maximum response 100 %, Minimum measured 0.619 %, P-gp concentration 500 nM, R squared 0.968, P-gp inhibitor CP100356): 2.69 µM

What does the source list for `COc1ccc(S(=O)(=O)Nc2cc(F)c(Cl)cc2C(=O)NCC(C)C)cc1`?
EC50 ([1]; Dengue virus, Vero C1008): 5.86 µM; EC90 ([1]; Dengue virus, Vero C1008): 6.67 µM

How did the EC50 ([1]; Dengue virus, Vero C1008) turn out when `O=C(Nc1cc(Cl)cc([C@H]2C[C@@H]2c2cccc(-c3nnn[nH]3)c2)c1)OCc1ccccc1` was run?
Its EC50 is > 25 µM.

And the EC90 ([1]; Dengue virus, Vero C1008, Maximum measured 174.938 %, Minimum measured 87.593 %, P-gp concentration 500 nM, P-gp inhibitor CP100356)?
Its EC90 is > 25 µM.

Which results are given for `C=CC[C@H]1NCc2cc(NC(=O)c3cc(Cl)cc4[nH]ncc34)ccc21`?
EC50 ([2]; Zika virus, Vero C1008): > 50 µM; EC90 ([2]; Zika virus, Vero C1008, Baseline response 0 %, Hill slope 0.168, Maximum measured 60.303 %, Maximum response 100 %, Minimum measured -6.598 %, R squared 0.022): > 50 µM

With `CC1(C)NCc2cc(NC(=O)c3cc(F)cc4[nH]ncc34)ccc21` as the compound, how does the EC50 ([2]; Zika virus, Vero C1008) read?
The EC50 was > 50 µM.

What about the EC90 ([2]; Zika virus, Vero C1008, Maximum measured -0.426 %, Minimum measured -7.479 %) of the same compound?
Its EC90 is > 50 µM.

How did the EC50 ([1]; Dengue virus, Vero C1008) turn out when `O=C(O)Cn1ncc2cc(-c3cc(Cl)cc(NC(=O)OCc4ccccc4)c3)ccc21` was run?
Its EC50 is > 50 µM.

And the EC90 ([1]; Dengue virus, Vero C1008, Maximum measured 125.945 %, Minimum measured 96.066 %, P-gp concentration 500 nM, P-gp inhibitor CP100356)?
Its EC90 is > 50 µM.

Which EC50 ([2]; Zika virus, Vero C1008) does the source give for `NCc1cccc(-c2csc3cc(C(=O)Nc4ccc5c(c4)CNC5)ccc23)c1` here?
Its EC50 is 2.4 µM.

What about the EC90 ([2]; Zika virus, Vero C1008, Baseline response 0 %, Hill slope 1.279, Maximum measured 60.824 %, Maximum response 100 %, Minimum measured 10.172 %, R squared 0.942) of the same compound?
Its EC90 is > 3.12 µM.

With `O=C(Nc1cc(Cl)cc(CNc2cccc(-c3nn[nH]n3)c2)c1)OCc1ccccc1` as the compound, how does the EC50 ([1]; Dengue virus, Vero C1008) read?
Its EC50 is > 25 µM.

And the EC90 ([1]; Dengue virus, Vero C1008, Maximum measured 175.327 %, Minimum measured 92.337 %, P-gp concentration 500 nM, P-gp inhibitor CP100356)?
Its EC90 is > 25 µM.

Reference: ChEMBL document CHEMBL5661943, “ASAP - In vitro antiviral effect” (2024)
